Reference: US10654884B2 (Vitae Pharmaceuticals, Inc., priority 2014, dated 2020)

Key:
[1] = molecular target: T1, CD73 on U138 neuroglioma cells (Homo sapiens, UniProt P21589); experiment: Inhibition of Ecto-5′-Nucleotidase Activity in U138 Neuroglioma Cells (Assay 2); type: cell-based; settings: 50 μM CMP, 2 hr at 37° C., malachite green readout, read-out: Assay 2: IC50, inhibition of ecto-5′-nucleotidase activity in U138 neuroglioma cells
T1 construct: U138 neuroglioma cells, which express CD73 on their surface; endogenous in cells; host or cells: U138 neuroglioma cells (ATCC)
T1 sequence (P21589 27-549): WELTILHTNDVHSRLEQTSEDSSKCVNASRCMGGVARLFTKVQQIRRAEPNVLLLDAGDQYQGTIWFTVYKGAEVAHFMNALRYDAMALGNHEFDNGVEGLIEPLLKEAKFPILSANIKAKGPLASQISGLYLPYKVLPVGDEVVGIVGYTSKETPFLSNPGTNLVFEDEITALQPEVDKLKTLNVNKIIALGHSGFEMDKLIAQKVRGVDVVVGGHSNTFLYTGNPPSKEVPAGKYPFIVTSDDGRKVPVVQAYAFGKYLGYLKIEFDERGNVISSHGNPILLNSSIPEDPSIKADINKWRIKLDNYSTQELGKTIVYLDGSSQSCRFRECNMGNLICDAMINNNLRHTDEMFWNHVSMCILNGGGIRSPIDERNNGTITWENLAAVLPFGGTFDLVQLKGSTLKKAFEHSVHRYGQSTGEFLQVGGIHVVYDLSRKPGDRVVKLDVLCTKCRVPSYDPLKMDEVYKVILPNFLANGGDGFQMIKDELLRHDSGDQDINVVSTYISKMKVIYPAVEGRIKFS
In short: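 Whole-cell CD73 activity in U138 human neuroglioma cells seeded the day before, washed free of phosphate, then given test compound dilutions with 50 μM CMP in HEPES-buffered saline, pH 7.4, DMSO ≤0.1%. Incubated 2 hr at 37° C; released inorganic phosphate in supernatant measured by malachite green; IC50 by nonlinear regression.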

[2] = molecular target: T2, human CD73 (Homo sapiens, UniProt P21589); experiment: Inhibition of 5′-Nucleotidase Activity of CD73 (Assay 1); type: biochemical; settings: human CD73 4 ng/ml, 50 μM CMP, 20 min at RT, malachite green readout; read-out: Assay 1: IC50, inhibition of 5′-nucleotidase activity of CD73
T2 construct: purchased R&D Systems 5795-EN-010
T2 sequence (P21589 27-549): T1 sequence (P21589 27-549)
In short: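 Human CD73 (4 ng/ml final) was incubated with 50 μM CMP in 25 mM Tris-HCl pH 7.4, 0.005% Brij-35 for 20 min at RT. Reactions were stopped with malachite green reagent and absorbance was read at 620 nm. IC50 came from a 4-parameter logistic fit.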

| Compound | IC50 [1] [nM] | IC50 [2] [nM] |
| --- | --- | --- |
| CCS(=O)(=O)C(OC[C@H]1O[C@@H](n2cnc3c(N)nc(Cl)nc32)[C@H](O)[C@@H]1O)P(=O)(O)O (single isomer, unassigned) [Example 11a] | > 1000 | 100 to 1000 |
| CCS(=O)(=O)C(OC[C@H]1O[C@@H](n2cnc3c(N)nc(Cl)nc32)[C@H](O)[C@@H]1O)P(=O)(O)O (single isomer, unassigned) [Example 11] | 100 to 1000 | < 100 |
| N#Cc1ccccc1CC(OC[C@H]1O[C@@H](n2cnc3c(N)nc(Cl)nc32)[C@H](O)[C@@H]1O)(C(=O)O)C(=O)O [Example 85] | < 100 | < 100 |
| CCOC(=O)[C@@H](OC[C@H]1O[C@@H](n2cnc3c(NCc4ccccc4)nc(Cl)nc32)[C@H](O)[C@@H]1O)P(=O)(O)O (single isomer, unassigned) [Example 24a] | 100 to 1000 | 100 to 1000 |
| CC(C)(C)OC(=O)[C@H](OC[C@H]1O[C@@H](n2cnc3c(N)nc(C#N)nc32)[C@H](O)[C@@H]1O)P(=O)(O)O (single isomer, unassigned) [Example 54] | < 100 | < 100 |
| O=C(O)C(OC[C@H]1O[C@@H](n2cnc3c(N[C@@H]4CCOC4)nc(Cl)nc32)[C@H](O)[C@@H]1O)C(=O)O [Example 69, (R)-2-(((2R,3S,4R,5R)-5-(2-chloro-6-(((R)-tetrahydrofuran-3-yl)amino)-9H-purin-9-yl)-3,4-dihydroxytetrahydrofuran-2-yl)methoxy)malonic Acid] | > 1000 | 100 to 1000 |
| Nc1nc(Cl)nc2c1ncn2[C@@H]1O[C@H](COC(Cc2ccc(F)cc2)(C(=O)O)C(=O)O)[C@@H](O)[C@H]1O [Example 4, 2-(((2R,3S,4R,5R)-5-(6-amino-2-chloro-9H-purin-9-yl)-3,4-dihydroxytetrahydrofuran-2-yl)methoxy)-2-(4-fluorobenzyl)malonic acid] | < 100 | < 100 |
| Nc1nc(Cl)nc2c1ncn2[C@@H]1O[C@H](COC(Cc2cc(F)cc(F)c2)(C(=O)O)C(=O)O)[C@@H](O)[C@H]1O [Example 96, 2-(((2R,3S,4R,5R)-5-(6-amino-2-chloro-9H-purin-9-yl)-3,4-dihydroxytetrahydrofuran-2-yl)methoxy)-2-(3,5-difluorobenzyl)malonic acid] | < 100 | < 100 |
| CCOC(=O)[C@](C)(OC[C@H]1O[C@@H](n2cnc3c(N)nc(Cl)nc32)[C@H](O)[C@@H]1O)P(=O)(O)O (single isomer, unassigned) [Example 9] | 100 to 1000 | < 100 |
| CC(C)(C)NC(=O)[C@H](OC[C@H]1O[C@@H](n2cnc3c(N)nc(Cl)nc32)[C@H](O)[C@@H]1O)P(=O)(O)O (single isomer, unassigned) [Example 19] | < 100 | < 100 |
| CCOC(=O)[C@@](C)(OC[C@H]1O[C@@H](n2cnc3c(N)nc(Cl)nc32)[C@H](O)[C@@H]1O)P(=O)(O)O (single isomer, unassigned) [Example 9a] | 100 to 1000 | 100 to 1000 |
| Nc1nc(Cl)nc2c1ncn2[C@@H]1O[C@H](COC(Cc2nccs2)(C(=O)O)C(=O)O)[C@@H](O)[C@H]1O [Example 94, 2-(((2R,3S,4R,5R)-5-(6-amino-2-chloro-9H-purin-9-yl)-3,4-dihydroxytetrahydrofuran-2-yl)methoxy)-2-(thiazol-2-ylmethyl)malonic acid] | < 100 | < 100 |
| CC(C)(C)OC(=O)C(OC[C@H]1C[C@@H](n2cnc3c(N)nc(Cl)nc32)[C@H](O)[C@@H]1O)P(=O)(O)O (single isomer, unassigned) [Example 78] | 100 to 1000 | < 100 |
| Cc1nnc(C(OC[C@H]2O[C@@H](n3cnc4c(N)nc(Cl)nc43)[C@H](O)[C@@H]2O)P(=O)(O)O)o1 (single isomer, unassigned) [Example 21a] | > 1000 | 100 to 1000 |
| CCOC(=O)[C@H](OC[C@H]1O[C@@H](n2cnc3c(N)nc([C@@H]4NCCO4)nc32)[C@H](O)[C@@H]1O)P(=O)(O)O (single isomer, unassigned) [Example 51] | > 1000 | 100 to 1000 |
| CCOC(=O)C(OC[C@H]1C[C@@H](n2nnc3c(N[C@H]4CCOC4)nc(Cl)nc32)[C@H](O)[C@@H]1O)P(=O)(O)O (stereo partly drawn) [Example 91, (1-(((1R,2R,3S,4R)-4-(5-chloro-7-(((S)-tetrahydrofuran-3-yl)amino)-3H-[1,2,3]triazolo[4,5-d]pyrimidin-3-yl)-2,3-dihydroxycyclopentyl)methoxy)-2-ethoxy-2-oxoethyl)phosphonic Acid] | < 100 | < 100 |

The remaining lines, values ahead:

| IC50 [1] [nM] | IC50 [2] [nM] | Compound |
| --- | --- | --- |
| 100 to 1000 | < 100 | CCNC(=O)[C@H](OC[C@H]1O[C@@H](n2cnc3c(N)nc(Cl)nc32)[C@H](O)[C@@H]1O)P(=O)(O)O (single isomer, unassigned) [Example 18] |
| < 100 | < 100 | Nc1nc(Cl)nc2c1ncn2[C@@H]1O[C@H](COC(C(=O)O)P(=O)(O)O)[C@@H](O)[C@H]1O (single isomer, unassigned) [Example 61] |
| 100 to 1000 | < 100 | Nc1nc(I)nc2c1ncn2[C@@H]1O[C@H](CO[C@@H](C(=O)O)P(=O)(O)O)[C@@H](O)[C@H]1O [Example 59a, (R)-2-(((2R,3S,4R,5R)-5-(6-amino-2-iodo-9H-purin-9-yl)-3,4-dihydroxytetrahydrofuran-2-yl)methoxy)-2-phosphonoacetic Acid] |
| < 100 | < 100 | CC(C)COC(=O)[C@H](OC[C@H]1O[C@@H](n2cnc3c(N)nc(Cl)nc32)[C@H](O)[C@@H]1O)P(=O)(O)O (single isomer, unassigned) [Example 14] |
| 100 to 1000 | < 100 | CCOC(=O)[C@@H](OC[C@H]1O[C@@H](n2cnc3c(N)nc(F)nc32)[C@H](O)[C@@H]1O)P(=O)(O)O (single isomer, unassigned) [Example 52] |
| < 100 | < 100 | CC(C)CNC(=O)[C@H](OC[C@H]1O[C@@H](n2cnc3c(N)nc(Cl)nc32)[C@H](O)[C@@H]1O)P(=O)(O)O (single isomer, unassigned) [Example 17] |
| > 1000 | 100 to 1000 | CCOC(=O)C(OC[C@H]1O[C@@H](n2cnc3c(N)nc(SC)nc32)[C@H](O)[C@@H]1O)P(=O)(O)O (stereo partly drawn) [Example 43, (1-(((2R,3S,4R,5R)-5-(6-amino-2-(methylthio)-9H-purin-9-yl)-3,4-dihydroxytetrahydrofuran-2-yl)methoxy)-2-ethoxy-2-oxoethyl)phosphonic Acid] |
| < 100 | < 100 | CCOC(=O)[C@@H](OC[C@H]1O[C@@H](n2cnc3c(NC4CCCC4)nc(Cl)nc32)[C@H](O)[C@@H]1O)P(=O)(O)O (single isomer, unassigned) [Example 25a] |
| 100 to 1000 | < 100 | CCOc1nc(Cl)nc2c1ncn2[C@@H]1O[C@H](COC(C(=O)O)P(=O)(O)O)[C@@H](O)[C@H]1O (stereo partly drawn) [Example 63, 2-(((2R,3S,4R,5R)-5-(2-chloro-6-ethoxy-9H-purin-9-yl)-3,4-dihydroxytetrahydrofuran-2-yl)methoxy)-2-phosphonoacetic acid] |
| 100 to 1000 | 100 to 1000 | CC(C)(C)OC(=O)[C@@H](OC[C@H]1O[C@@H](n2cnc3c(N)nc(Cl)nc32)[C@H](O)[C@@H]1O)P(=O)(O)O (single isomer, unassigned) [Example 15a] |
| 100 to 1000 | 100 to 1000 | CCOC(=O)[C@@H](OC[C@H]1O[C@@H](n2cnc3c(NC)nc(Cl)nc32)[C@H](O)[C@@H]1O)P(=O)(O)O (single isomer, unassigned) [Example 23a] |
| < 100 | < 100 | CCOC(=O)[C@H](OC[C@H]1O[C@@H](n2cnc3c(NC4CCCC4)nc(Cl)nc32)[C@H](O)[C@@H]1O)P(=O)(O)O (single isomer, unassigned) [Example 25] |
| 100 to 1000 | 100 to 1000 | CCOC(=O)[C@@H](OC[C@H]1O[C@@H](n2cnc3c(-n4ccnc4)nc(Cl)nc32)[C@H](O)[C@@H]1O)P(=O)(O)O (single isomer, unassigned) [Example 26a] |
| < 100 | 100 to 1000 | CCNC(=O)[C@@H](OC[C@H]1O[C@@H](n2cnc3c(N)nc(Cl)nc32)[C@H](O)[C@@H]1O)P(=O)(O)O (single isomer, unassigned) [Example 18a] |
| 100 to 1000 | < 100 | Nc1nc(F)nc2c1ncn2[C@@H]1O[C@H](CO[C@@H](C(=O)O)P(=O)(O)O)[C@@H](O)[C@H]1O [Example 53, (R)-2-(((2R,3S,4R,5R)-5-(6-amino-2-fluoro-9H-purin-9-yl)-3,4-dihydroxytetrahydrofuran-2-yl)methoxy)-2-phosphonoacetic Acid] |
